Data: patent US4539206A, “Topical compositions containing copper (II) complexes of 3,5-dioxo-pyrazolidine derivatives and methods of combatting inflammation with them” (Alcusal Incorporated Pty. Ltd., priority 1981, dated 1985)
Read-outs that look alike come from different tables or passages of the source.

Key:
[1] = system: hydroxylapatite-induced paw swelling; conditions: applied ×2; hydroxylapatite 50 mg/ml, 0.15 ml injected
Protocol: (§1) We have carried out assays for acute anti-inflammatory and anti-arthritic activities by procedures described previously in W. R. Walker, S. J. Beveridge and M. W. Whitehouse, "Anti-inflammatory Activity of a Dermally Applied Copper Salicylate Preparation (Alcusal)", Agents and Actions 10, 38 (1980).
(§2) (a) Male Wistar rats were shaved (ca 20 cm^2) behind the neck and a solution of 0.1 M copper (II) acetate containing 0.25 M phenylbutazone in DMSO was applied (5 ml/kg). The first application was made 2.5 hr before injecting sodium carrageenan solution into the paw (a 0.1 ml injection delivering 1 mg in 0.15 M NaCl) to induce oedema. A second application of the copper phenylbutazone, if made, was at 1.5 hr before the carrageenan was injected.
(§3) The swelling was measured unidimensionally as increase in paw thickness after 2 and 4 hrs using a micrometer screw gauge. Controls were treated with DMSO only.

[2] = system: sodium carrageenan-induced paw oedema; conditions: 5 ml/kg, 0.1 M copper (II) acetate containing 0.25 M phenylbutazone in DMSO, controls DMSO
Protocol: as §1, §2, §3

[3] = system: arthritis induced by arthritogenic adjuvant (M. tuberculosis in squalane); experiment: anti-arthritic activity in established adjuvant arthritis, topical application; format: in vivo, PVG x DA rats; conditions: day 12 to day 16, once daily 5 ml/kg for 4 days, means ± standard error; for increase in paw thickness (mm), tail: DMSO controls 0.9 ± 0.2; for increase in paw thickness (mm), rear paws: DMSO controls 2.2 ± 0.1
[4] = Bio-distribution of ^64 Cu(PB)2.x DMSO after topical application to rats; format: in vivo, male white rats; conditions: for Bio-distribution of ^64 Cu as % of Original Applied, Faeces: assumed faecal output; for Bio-distribution of ^64 Cu as % of Original Applied, Blood (20 ml): assumed total blood volume; for Bio-distribution of ^64 Cu as % of Original Applied, Urine: assumed urine output
Protocol: (1) The copper (II) phenylbutazone complex labelled with ^64 Cu was prepared as follows: Radioactive copper (II) acetate containing 3 mCi of ^64 Cu (A.A.E.C. Lucas Heights) was mixed with copper (II) acetate monohydrate (0.250 g), phenylbutazone (0.964 g) and dissolved in DMSO (10 ml). Glycerol (2.5 ml) was added later.
Six male white rats (average weight 250 g) were anaesthetised with halothane and an area of skin (ca 20 cm^2) immediately below the neck was shaved with electric hair clippers. Two aliquots (each 0.75 ml) were applied to each rat, whilst anaesthetised, over a period of one hour.
Each rat was placed separately in an experimental cage which permitted collection of both urine and faeces. At times of 6, 24 and 48 hours after topical application, two rats were anaesthetised with ether and euthenased by decapitation in a guillotine. Each organ except the thymus, spleen and the adrenals were cut into two samples for more accurate counting. This was done on a Packard automatic γ spectrometer for periods from 1 to 10 minutes.
All counts were corrected to zero time per gram of wet tissue. After 24 and 48 hours, the faeces were dry and the activity in them is not recorded in FIG. 3.
In Table 1, the results for the location in the rats of the ^64 Cu activity at 6, 24 and 48 hours after topical application are shown.

[5] = Cu^2+ + 2HPB = [Cu(PB)2] + 2H^+, room temperature, DMSO, absorbance at 430 nm
Protocol: The following solutions were prepared in DMSO using stock solutions of 0.01 M copper (II) acetate (A) and 0.20 M phenylbutazone (B)
and the spectra were measured using a Varian Techtron 634S UV-visible spectrophotometer and 1 cm cells.
In FIG. 2, a plot of absorbance (arbitrary scale) at 430 nm versus molar ratio of phenylbutazone (HPB) to copper has been made. […]

[6] = applied ×1 (2.5 hr before carrageenan)
[7] = applied ×2 (2.5 and 1.5 hr before carrageenan)

## CCCC[c-]1c(=O)n(-c2ccccc2)n(-c2ccccc2)c1=O.CCCC[c-]1c(=O)n(-c2ccccc2)n(-c2ccccc2)c1=O.[Cu+2] [[Cu(PB)2].x(DMSO), copper (II) di(phenylbutazone)]
[1]
  % inhibition of paw swelling at 2 hr: 42%
  % inhibition of paw swelling at 4 hr: 76%
[2]; [6]
  % inhibition of paw swelling at 2 hr: 34%
  % inhibition of paw swelling at 4 hr: 33%
[2]; [7]
  % inhibition of paw swelling at 2 hr: 65%
  % inhibition of paw swelling at 4 hr: 71%
[3]
  increase in paw thickness (mm), tail: 0.3 ± 0.2 mm
  increase in paw thickness (mm), rear paws: 0.4 ± 0.1 mm
[4]; result in words
  absorption after topical application: readily enters the bloom stream
  dermal penetration: excellent dermal penetration
[5]; listed as Cu(PB)2. xDMSO
  equilibrium constant, log K: ~4.7
[5]; listed as [Cu(PB)2 ]
  equilibrium constant, log K: ~ 4.7

## CCCCC1C(=O)N(c2ccccc2)N(c2ccccc2)C1=O [HPB, phenylbutazone, reference compound]
[3]
  increase in paw thickness (mm), tail: 0.3 ± 0.1 mm
  increase in paw thickness (mm), rear paws: 1.0 ± 0.2 mm

## CCCC[c-]1c(=O)n(-c2ccccc2)n(-c2ccccc2)c1=O.CCCC[c-]1c(=O)n(-c2ccccc2)n(-c2ccccc2)c1=O.[64Cu+2] [^64 Cu(PB)2.x DMSO]
[4]; 6 h
  Bio-distribution of ^64 Cu as % of Original Applied, Adrenals: -- (less than 0.004%)
  Bio-distribution of ^64 Cu as % of Original Applied, Brain: 0.02%
  Bio-distribution of ^64 Cu as % of Original Applied, Heart: 0.01%
  Bio-distribution of ^64 Cu as % of Original Applied, Kidney: 0.04%
  Bio-distribution of ^64 Cu as % of Original Applied, Liver: 6.22%
  Bio-distribution of ^64 Cu as % of Original Applied, Skin (application site): 5.34%
  Bio-distribution of ^64 Cu as % of Original Applied, Spleen: 0.01%
  Bio-distribution of ^64 Cu as % of Original Applied, Thymus: 0.01%
  Bio-distribution of ^64 Cu as % of Original Applied, Faeces: 0.07%
  Bio-distribution of ^64 Cu as % of Original Applied, Blood (20 ml): 0.09%
  Bio-distribution of ^64 Cu as % of Original Applied, Urine: 0.04%
[4]; 24 h
  Bio-distribution of ^64 Cu as % of Original Applied, Adrenals: -- (less than 0.004%)
  Bio-distribution of ^64 Cu as % of Original Applied, Brain: 0.01%
  Bio-distribution of ^64 Cu as % of Original Applied, Heart: -- (less than 0.004%)
  Bio-distribution of ^64 Cu as % of Original Applied, Kidney: 0.04%
  Bio-distribution of ^64 Cu as % of Original Applied, Liver: 0.17%
  Bio-distribution of ^64 Cu as % of Original Applied, Skin (application site): 3.81%
  Bio-distribution of ^64 Cu as % of Original Applied, Spleen: -- (less than 0.004%)
  Bio-distribution of ^64 Cu as % of Original Applied, Thymus: -- (less than 0.004%)
  Bio-distribution of ^64 Cu as % of Original Applied, Faeces: 28.9%
  Bio-distribution of ^64 Cu as % of Original Applied, Blood (20 ml): 0.08%
  Bio-distribution of ^64 Cu as % of Original Applied, Urine: 0.21%
[4]; 48 h
  Bio-distribution of ^64 Cu as % of Original Applied, Adrenals: -- (less than 0.004%)
  Bio-distribution of ^64 Cu as % of Original Applied, Brain: 0.01%
  Bio-distribution of ^64 Cu as % of Original Applied, Heart: -- (less than 0.004%)
  Bio-distribution of ^64 Cu as % of Original Applied, Kidney: 0.04%
  Bio-distribution of ^64 Cu as % of Original Applied, Liver: 0.15%
  Bio-distribution of ^64 Cu as % of Original Applied, Skin (application site): 1.02%
  Bio-distribution of ^64 Cu as % of Original Applied, Spleen: 0.01%
  Bio-distribution of ^64 Cu as % of Original Applied, Thymus: -- (less than 0.004%)
  Bio-distribution of ^64 Cu as % of Original Applied, Faeces: 49.9%
  Bio-distribution of ^64 Cu as % of Original Applied, Blood (20 ml): 0.08%
  Bio-distribution of ^64 Cu as % of Original Applied, Urine: 0.40%
[4]; after two days, topical application, 2880 min
  ^64 Cu found in the faeces: about 50%
[4]; result in words
  clearance of ^64 Cu from the system: cleared from the system in several days
[4]; result in words, 6 to 48 h
  activity of ^64 Cu in the skin at the site of application: decreases linearly with time
